{"source": "patent US20090048292A1", "about": "“SYNERGISTIC COMBINATION” (priority 2007, published 2009)", "key": {"[1]": {"tested_on": "human SK-Mel28 melanoma cells", "experiment": "Different angiogenesis inhibitors as monotherapy in human melanoma model SK-Mel28 (FIG. 1)", "assay_type": "in vivo", "settings": "daily treatment from tumor size 20-30 mm^2; ZK261991 orally 50 mg/kg per day", "protocol": "Human SK-MeI 28 melanoma cells were cultivated in RPMI1640 medium together with 1% glucose and 10% foetal calf serum. 3 million cells per animal have been transferred to NMRI nu/nu nude mice in a volume of 0,1 ml in a 1:1 mixture consisting of media and matri gel. With achieving the tumor size of about 20 mm^2, in this case on day 3, the treatment of the animals has been started.\nIn a human melanoma model SK-Mel28 different angiogenesis inhibitors have been tested. […] In this experiment the tumor have been daily treated with different compounds beginning after establishment of the tumors, respectively at a size of 20-30 mm^2. The compound ZK261991 was orally applied in a dosage of 50 mg/kg per day and in a volume of 0.1 ml/10 g body weight, as a 5% DMSO/Ethanol 1:1 mixture in 0.085 Myrj85®/0.9% NaCl formulation. ZK222584 (PTK/ZK, Vatalanib) comprised in the same formulation was applied. Further Bay43-9006 (Nexavar®) in 30% hydroxy propyl cyclodextrine (HP-β-CD), pH 5.0 in the same volume of 0.1 ml/10 g body weight was applied. […] However, no reaction could be determined with a dosage of 5 and 10 mg/kg (s. FIG. 2). The tumors have been treated in a daily manner with different MS-275 dosages, beginning with the set up at a size of ca. 20-30 mm^2. MS-275 was applied in 30% hydroxypropyl cyclodextrine (HP-β-CD), pH5.0, in a volume of 0.1 ml/10 g body weight."}, "[2]": {"tested_on": "Human SK-MeI 28 melanoma cells", "experiment": "Combination study of ZK 261991 and MS-275 in human SK-Mel 28 melanoma model in NMRI nu/nu nude mice (tumor area, tumor weight)", "assay_type": "in vivo", "settings": "for Tumor area on day 57, average: group average; for Tumor area of the single studied groups on day 57: single animals", "description": "For this, the animals have been randomized and separated into the following test group (8 animals per group, each):\nMS-275; 10 mg/kg/day 3. […] Untreated control (these animals received the solution solvent, only)\nThe compounds are orally daily applied via a probang till the end of the experiment on day 57. The tumor size was determined (length×width) after 6-7 days. On day 57, the animals were sacrificed by breaking the neck and the tumors were isolated. The weight of the tumors was determined. The tumor size (tumor area in mm^2) was inserted into a diagram, as function of the time. An average of the tumor weight of each group was calculated, as well as the variation and was inserted into a diagram. In the same time interval the tumor size was determined, also the body weight was determined by balancing. The data were inserted in a diagram as function of the time.\nThe tumors were treated in a daily manner with the different compounds beginning with the establishment, at a size of ca. 20.30 mm^2. […] For the calculation of the statistically signification the SigmaStat-programm with the One-Way-ANOVA-analysis was used.\nFor the calculation of the statistically significance the SigmaStat-program with a One-Way-ANOVA-analysis was used."}, "[3]": {"settings": "day 57, ZK261991 50 mg/kg/day, MS-275 10 mg/kg/day, oral daily, alone or combined"}}, "note": "Several values for one entry are separate records, joined by “and”; a condition that tells them apart may be missing. Equal entries are not always repeated."}
{"compound": "CNC(=O)c1cc(Oc2ccc(NC(=O)Nc3ccc(Cl)c(C(F)(F)F)c3)cc2)ccn1", "note": "[Bay43-9006]", "values": [{"measurement": "inhibitory effect onto the tumor growth, FIG. 1", "setting": "[1]", "value": "No inhibitory effect"}]}
{"compound": "CN(C)C(=O)Nc1cc(CNc2ccccc2C(=O)Nc2ccc3cn(C)nc3c2)ccn1", "note": "[ZK 261991, N′2′-{[2-(3,3-Dimethylureido)pyridine-4-yl]methyl}-N-(2-methyl-2H-indazol-6-yl)Anthranilamid]", "values": [{"measurement": "reaction of tumor growth (tumor area) to treatment, FIG. 3", "setting": "[2]; daily oral treatment, ZK261991 50 mg/kg/day, MS-275 10 mg/kg, alone or combined, One-Way-ANOVA", "value": "statistically significant but moderate result"}, {"measurement": "T/C value (tumor weight)", "setting": "[2]; [3]", "value": 0.55}, {"measurement": "reduction of the tumor weight in comparison to the untreated control (percentage of inhibition)", "setting": "[2]; [3]", "value": 45, "unit": "%"}, {"measurement": "Tumor area on day 57, average", "setting": "[2]; ZK 261991 50 mg/kg/day oral daily, day 57", "value": 104.7, "unit": "mm^2"}, {"measurement": "Tumor area of the single studied groups on day 57", "setting": "[2]; ZK 261991 50 mg/kg/day oral daily, day 57, 50 mg/kg/day", "value": "109.5 mm^2 and 100.1 mm^2 (2×) and 105.0 mm^2 and 118.8 mm^2 and 88.8 mm^2 and 116.3 mm^2 and 98.9 mm^2"}, {"measurement": "inhibitory effect onto the tumor growth, FIG. 1", "setting": "[1]", "value": "No inhibitory effect"}]}
{"compound": "Clc1ccc(Nc2nnc(Cc3ccncc3)c3ccccc23)cc1", "note": "[ZK222584, Vatalanib]", "values": [{"measurement": "inhibitory effect onto the tumor growth, FIG. 1", "setting": "[1]", "value": "No inhibitory effect"}]}
{"compound": "Nc1ccccc1NC(=O)c1ccc(CNC(=O)OCc2cccnc2)cc1", "note": "[MS-275, 3-pyridylmethyl-N-{4-[(2-amino-phenyl)-carbamoyl]benzyl}carbamate]", "values": [{"measurement": "reduction of the tumor weight in comparison to the untreated control (percentage of inhibition)", "setting": "[2]; [3]", "value": 0, "unit": "%"}, {"measurement": "Tumor area on day 57, average", "setting": "[2]; MS-275 10 mg/kg/day oral daily, day 57", "value": 135.7, "unit": "mm^2"}, {"measurement": "Tumor area of the single studied groups on day 57", "setting": "[2]; MS-275 10 mg/kg/day oral daily, day 57, 10 mg/kg/day", "value": "132.1 mm^2 and 169.1 mm^2 and 142.9 mm^2 and 128.6 mm^2 and 169.2 mm^2 and 104.2 mm^2 and 112.1 mm^2 and 127.2 mm^2"}]}
